{
  "source": "ChEMBL document CHEMBL1145416",
  "about": "“Design, synthesis, and biological evaluation of pyrazinones containing novel P1 needles as inhibitors of TF/VIIa” (Bioorg Med Chem Lett, 2007)",
  "key": {"Prothrombin": {"target": "Prothrombin (Homo sapiens, UniProt P00734)", "experiment": "Inhibition of factor 2a"}, "Coagulation factor X": {"target": "Coagulation factor X (Homo sapiens, UniProt P00742)", "sequence (P00742 41-179 limits assumed)": "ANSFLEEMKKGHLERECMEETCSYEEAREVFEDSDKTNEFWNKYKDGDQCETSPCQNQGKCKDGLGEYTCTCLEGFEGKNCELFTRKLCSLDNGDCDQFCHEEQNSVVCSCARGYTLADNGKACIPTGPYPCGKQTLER", "sequence (P00742 235-488 limits assumed)": "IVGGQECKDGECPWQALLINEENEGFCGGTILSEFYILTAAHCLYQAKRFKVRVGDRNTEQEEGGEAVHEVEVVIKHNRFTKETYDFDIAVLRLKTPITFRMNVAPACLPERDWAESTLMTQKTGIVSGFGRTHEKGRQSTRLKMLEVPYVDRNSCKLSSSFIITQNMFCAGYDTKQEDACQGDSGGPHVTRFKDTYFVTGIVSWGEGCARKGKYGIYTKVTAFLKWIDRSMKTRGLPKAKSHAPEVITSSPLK", "experiment": "Inhibition of factor 10a"}, "Trypsin": {"target": "Trypsin (Homo sapiens, UniProt P07477+P07478+P35030)", "experiment": "Inhibition of trypsin", "assay_type": "protein assay"}, "Coagulation factor VII": {"target": "T1, Coagulation factor VII (Homo sapiens, UniProt P08709)", "T1 sequence (P08709 whole entry)": "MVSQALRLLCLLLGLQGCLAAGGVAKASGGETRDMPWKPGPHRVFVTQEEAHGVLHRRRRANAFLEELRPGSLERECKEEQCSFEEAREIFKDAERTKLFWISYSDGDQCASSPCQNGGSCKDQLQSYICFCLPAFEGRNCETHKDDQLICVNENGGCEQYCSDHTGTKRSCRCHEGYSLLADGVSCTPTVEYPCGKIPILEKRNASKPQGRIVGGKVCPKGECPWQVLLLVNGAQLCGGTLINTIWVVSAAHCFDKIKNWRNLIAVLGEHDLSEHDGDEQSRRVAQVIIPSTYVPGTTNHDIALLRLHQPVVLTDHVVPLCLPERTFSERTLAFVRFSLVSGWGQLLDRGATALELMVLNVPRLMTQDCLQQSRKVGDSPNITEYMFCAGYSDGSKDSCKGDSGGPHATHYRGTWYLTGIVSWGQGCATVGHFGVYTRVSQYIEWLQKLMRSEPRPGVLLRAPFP", "experiment": "Inhibition of factor 7a"}},
  "data": [
    {"smiles": "N=C(N)c1ccc(CNC(=O)Cn2c(-c3cccc(N)c3)c(Cl)nc(NC3CCC3)c2=O)cc1O", "values": [
      {"measurement": "IC50", "setting": "Prothrombin", "result": "> 100", "unit": "µM"},
      {"measurement": "IC50", "setting": "Coagulation factor X", "result": "> 100", "unit": "µM"},
      {"measurement": "IC50", "setting": "Trypsin", "result": 7.55, "unit": "µM"},
      {"measurement": "IC50", "setting": "Coagulation factor VII", "result": 0.19, "unit": "µM"}
    ]},
    {"smiles": "N=C(N)c1ccc(CNC(=O)Cn2c(-c3cccc(N)c3)c(Cl)nc(NC3CCC3)c2=O)c(C(F)(F)F)c1", "values": [
      {"measurement": "IC50", "setting": "Prothrombin", "result": "> 30", "unit": "µM"},
      {"measurement": "IC50", "setting": "Coagulation factor X", "result": "> 30", "unit": "µM"},
      {"measurement": "IC50", "setting": "Trypsin", "result": 0.23, "unit": "µM"},
      {"measurement": "IC50", "setting": "Coagulation factor VII", "result": 0.79, "unit": "µM"}
    ]},
    {"smiles": "N=C(N)c1c(O)c(F)c(CNC(=O)Cn2c(-c3cccc(N)c3)c(Cl)nc(NC3CCC3)c2=O)c(F)c1F", "values": [
      {"measurement": "IC50", "setting": "Prothrombin", "result": "> 100", "unit": "µM"},
      {"measurement": "IC50", "setting": "Coagulation factor X", "result": "> 100", "unit": "µM"},
      {"measurement": "IC50", "setting": "Coagulation factor VII", "result": 0.11, "unit": "µM"}
    ]},
    {"smiles": "N=C(N)c1c(F)c(F)c(CNC(=O)Cn2c(-c3cccc(N)c3)c(Cl)nc(NC3CCC3)c2=O)c(F)c1F", "values": [
      {"measurement": "IC50", "setting": "Prothrombin", "result": "> 100", "unit": "µM"},
      {"measurement": "IC50", "setting": "Coagulation factor X", "result": "> 30", "unit": "µM"},
      {"measurement": "IC50", "setting": "Coagulation factor VII", "result": 5.48, "unit": "µM"}
    ]},
    {"smiles": "N/N=C(/N)c1ccc(CNC(=O)Cn2c(-c3cccc(N)c3)c(Cl)nc(NC3CCC3)c2=O)cc1", "values": [
      {"measurement": "IC50", "setting": "Prothrombin", "result": "> 100", "unit": "µM"},
      {"measurement": "IC50", "setting": "Coagulation factor X", "result": "> 100", "unit": "µM"}
    ]},
    {"smiles": "Nc1cccc(-c2c(Cl)nc(NC3CCC3)c(=O)n2CC(=O)NCc2ccc3c(N)noc3c2)c1", "values": [
      {"measurement": "IC50", "setting": "Prothrombin", "result": "> 30", "unit": "µM"},
      {"measurement": "IC50", "setting": "Coagulation factor X", "result": "> 30", "unit": "µM"},
      {"measurement": "IC50", "setting": "Trypsin", "result": "> 30", "unit": "µM"}
    ]},
    {"smiles": "N=C(N)c1ccc(C(=O)NCCn2c(-c3cccc(N)c3)c(Cl)nc(NC3CCC3)c2=O)cc1", "values": [
      {"measurement": "IC50", "setting": "Coagulation factor X", "result": "> 30", "unit": "µM"}
    ]},
    {"smiles": "Nc1cccc(-c2c(Cl)nc(NC3CCC3)c(=O)n2CC(=O)NCc2ccc3c(N)nsc3c2)c1", "values": [
      {"measurement": "IC50", "setting": "Coagulation factor X", "result": "> 30", "unit": "µM"}
    ]},
    {"smiles": "N=c1[nH][nH]c(=O)c2cc(CNC(=O)Cn3c(-c4cccc(N)c4)c(Cl)nc(NC4CCC4)c3=O)ccc12", "values": [
      {"measurement": "IC50", "setting": "Prothrombin", "result": "> 30", "unit": "µM"},
      {"measurement": "IC50", "setting": "Coagulation factor X", "result": "> 30", "unit": "µM"},
      {"measurement": "IC50", "setting": "Coagulation factor VII", "result": "> 30", "unit": "µM"}
    ]},
    {"smiles": "Nc1cccc(-c2c(Cl)nc(NC3CCC3)c(=O)n2CC(=O)NCc2ccc3c(N)nccc3c2)c1", "values": [
      {"measurement": "IC50", "setting": "Prothrombin", "result": "> 30", "unit": "µM"},
      {"measurement": "IC50", "setting": "Coagulation factor X", "result": "> 30", "unit": "µM"},
      {"measurement": "IC50", "setting": "Trypsin", "result": "> 30", "unit": "µM"},
      {"measurement": "IC50", "setting": "Coagulation factor VII", "result": "> 30", "unit": "µM"}
    ]},
    {"smiles": "Nc1cccc(-c2c(Cl)nc(NC3CCC3)c(=O)n2CC(=O)NCCc2cnc[nH]2)c1", "values": [
      {"measurement": "IC50", "setting": "Prothrombin", "result": "> 30", "unit": "µM"},
      {"measurement": "IC50", "setting": "Coagulation factor X", "result": "> 30", "unit": "µM"},
      {"measurement": "IC50", "setting": "Trypsin", "result": "> 30", "unit": "µM"},
      {"measurement": "IC50", "setting": "Coagulation factor VII", "result": "> 30", "unit": "µM"}
    ]},
    {"smiles": "Nc1cccc(-c2c(Cl)nc(NC3CCC3)c(=O)n2CC(=O)NCCc2cnc(N)[nH]2)c1", "values": [
      {"measurement": "IC50", "setting": "Prothrombin", "result": "> 30", "unit": "µM"},
      {"measurement": "IC50", "setting": "Coagulation factor X", "result": "> 30", "unit": "µM"},
      {"measurement": "IC50", "setting": "Trypsin", "result": 6.2, "unit": "µM"},
      {"measurement": "IC50", "setting": "Coagulation factor VII", "result": "> 30", "unit": "µM"}
    ]},
    {"smiles": "NC1=NCCSc2cc(CNC(=O)Cn3c(-c4cccc(N)c4)c(Cl)nc(NC4CCC4)c3=O)ccc21", "values": [
      {"measurement": "IC50", "setting": "Prothrombin", "result": "> 30", "unit": "µM"},
      {"measurement": "IC50", "setting": "Coagulation factor X", "result": "> 30", "unit": "µM"},
      {"measurement": "IC50", "setting": "Trypsin", "result": "> 30", "unit": "µM"},
      {"measurement": "IC50", "setting": "Coagulation factor VII", "result": "> 30", "unit": "µM"}
    ]},
    {"smiles": "Nc1cccc(-c2c(Cl)nc(NC3CCC3)c(=O)n2CC(=O)NCc2ccnc(N)n2)c1", "values": [
      {"measurement": "IC50", "setting": "Prothrombin", "result": "> 30", "unit": "µM"},
      {"measurement": "IC50", "setting": "Coagulation factor X", "result": "> 30", "unit": "µM"},
      {"measurement": "IC50", "setting": "Coagulation factor VII", "result": "> 30", "unit": "µM"}
    ]},
    {"smiles": "N=C(N)c1ccc(S(=O)(=O)NCCn2c(-c3cccc(N)c3)c(Cl)nc(NC3CCC3)c2=O)cc1", "values": [
      {"measurement": "IC50", "setting": "Prothrombin", "result": "> 30", "unit": "µM"},
      {"measurement": "IC50", "setting": "Coagulation factor X", "result": "> 30", "unit": "µM"},
      {"measurement": "IC50", "setting": "Trypsin", "result": 9.1, "unit": "µM"},
      {"measurement": "IC50", "setting": "Coagulation factor VII", "result": 30, "unit": "µM"}
    ]},
    {"smiles": "Nc1cccc(-c2c(Cl)nc(NC3CCC3)c(=O)n2CC(=O)NCc2ccccc2)c1", "values": [
      {"measurement": "IC50", "setting": "Prothrombin", "result": 10.6, "unit": "µM"},
      {"measurement": "IC50", "setting": "Coagulation factor X", "result": 0.04, "unit": "µM"},
      {"measurement": "IC50", "setting": "Coagulation factor VII", "result": 0.02, "unit": "µM"}
    ]},
    {"smiles": "N=C(N)c1ccc(CNC(=O)Cn2c(-c3cccc(N)c3)c(Cl)nc(NC3CCC3)c2=O)c(F)c1", "values": [
      {"measurement": "IC50", "setting": "Coagulation factor X", "result": 0.05, "unit": "µM"},
      {"measurement": "IC50", "setting": "Trypsin", "result": "> 30", "unit": "µM"},
      {"measurement": "IC50", "setting": "Coagulation factor VII", "result": 0.04, "unit": "µM"}
    ]},
    {"smiles": "N=C(N)c1ccc(CNC(=O)Cn2c(-c3cccc(N)c3)c(Cl)nc(NC3CCC3)c2=O)cc1F", "values": [
      {"measurement": "IC50", "setting": "Prothrombin", "result": "> 30", "unit": "µM"},
      {"measurement": "IC50", "setting": "Coagulation factor X", "result": "> 30", "unit": "µM"}
    ]}
  ]
}
